According to patent publication US11846639B2, “Ligand discovery for T cell receptors” (priority 2014, dated 2023):

Test system: AGA1 T cell receptor
Assay: Selection of yeast-displayed HLA-B5703 peptide library with AGA1 TCR, deep sequencing read counts
Format: binding
Conditions: for number of times the peptide was represented, Rd1: after round 1 of selection with AGA1 TCR; for number of times the peptide was represented, Rd2: after round 2 of selection with AGA1 TCR; for number of times the peptide was represented, Rd3: after round 3 of selection with AGA1 TCR; for number of times the peptide was represented, Rd4: after round 4 of selection with AGA1 TCR; for number of times the peptide was represented, Naïve: naïve library before selection
Experimental: Selection of pMHC libraries To maximize sensitivity of selections, all described selection steps were conducted at 4° using cold buffers, and refrigerated centrifuges. All spins were 5,000×g for 1 minute. Before each round of selection, a small sample of yeast (˜1×10^6 cells) were stained with an anti-epitope tag antibody. For the first round of selection, ˜2×10^9 yeast were washed once with PBS+0.5% BSA and 1 mM EDTA (PBE buffer) and then cleared with unloaded Streptavidin Microbeads (250 uL beads in 5 mL PBE) (Miltenyi, 130-048-101) to eliminate any nonspecifically binding yeast clones by incubating 1 hr at 4° with gentle rotation. The yeast were then spun down, resuspended in 5 mL PBE without a wash, and passed through a Miltenyi LS column. […] TCR-binding yeast were then selected via an LS column, washed in SDCAA, and then re-cultured in SDCAA, pH 4.5 at 30° C. overnight. Yeast were re-induced upon reaching OD>2. For each round of selection, at least 10-fold more yeast was used than recovered from the previous round to ensure complete coverage of all selected yeast. Second and third rounds of selection were conducted in the same manner, but with reduced volumes (50 µL of beads in 500 LL PBE). Progress of selections was monitored by counting of cells selected to TCR-bound streptavidin beads as compared to streptavidin beads alone via an Accuri C6 flow cytometer. […] For the final round of selection (conducted when the yeast count enriched by TCR loaded beads was higher than background, usually after 3 rounds), the libraries were stained with 500 nM streptavidin-TCR tetramer as described above, washed 3× with PBE, then incubated with 50 uL anti-Alexa647 Microbeads (Miltenyi, 130-091-395) in 450 µL PBE for 20 minutes. The yeast were washed a final time and passed through a Miltenyi LS column. Enriched yeast were then plated on SDCAA plates for characterization of individual colonies. Individual yeast clones were then screened for tetramer staining as described above. Plasmids containing the selected pMHC were isolated from positive clones via yeast miniprep (Zymoprep II kit, Zymo Research) and sequenced (Sequetech).
Deep sequencing of selection libraries. Pooled plasmids from 5×10^7 yeast from each round of selection were isolated via yeast miniprep (Zymoprep II kit, Zymo Research) and used as PCR template to prepare Illumina samples. Amplicon libraries were designed as follows: (Illumina P5-Truseq read 1-(N8)-Barcode-pMHC-(N8)-Truseq read 2-IlluminaP7). N8 was added immediately after both sequencing primers to generate diversity for low complexity sequencing reads. The adapter and barcode sequences were appended via nested 25-round cycles of PCR of the purified plasmids using Phusion polymerase (NEB). Primers were proximal to the peptide on the pMHC, annealing to the Aga2p leader sequence (5′ end) and MHC β1 domain (3′ end) to ensure high quality sequence reads of the peptide with double coverage. Final PCR products were run on a high percentage agarose gel and purified via gel extraction. PCR products were then quantitated via nanodrop, normalized for each barcoded round of selection to be equally represented, doped with 5-50% PhiX DNA to ensure sufficient sequence diversity for high quality sequence reads, and run on an Illumina MiSeq with 2×150 nt Paired End reads. The initial deep sequencing run, for the 2B4-I-E^k selections, was conducted with 1×150 nt Single End reads. When the sequencing data was analyzed as described below, we saw no significant difference in data quality between single and paired-end reads (as judged by comparing the results for 226/5cc7 when analyzed as single reads vs. paired-end reads). Deep sequencing was conducted at the Stanford Stem Cell Institute Genome Center.
The library was expressed and screened as described above in Example 1, with the AGA1 T cell receptor.
The top 20 peptides after round 3 has the sequences shown below in Table 3. […]

Row | Sequence | number of times the peptide was represented, Rd1 | number of times the peptide was represented, Rd2 | number of times the peptide was represented, Rd3 | number of times the peptide was represented, Rd4 | number of times the peptide was represented, Naïve
1 | SSFSPELRMRW [HLA-B5703 library peptide selected with AGA1 TCR] | 10 | 14335 | 98338 | 48729 | 3
2 | GSLAPEIRMYW [HLA-B5703 library peptide selected with AGA1 TCR] | 11 | 3108 | 23178 | 10848 | 9
3 | SSGVPEVRMMF [HLA-B5703 library peptide selected with AGA1 TCR] | 38 | 40422 | 215079 | 125041 | 6
4 | LSLRPEIPLFF [HLA-B5703 library peptide selected with AGA1 TCR] | 74 | 63749 | 183724 | 189891 | 5
5 | NSVKPEIRPVW [HLA-B5703 library peptide selected with AGA1 TCR] | 10 | 10086 | 33679 | 32818 | 6
6 | YSFKPELKEIF [HLA-B5703 library peptide selected with AGA1 TCR] | 5 | 5648 | 28641 | 20312 | 0
7 | KSFVPELKPAF [HLA-B5703 library peptide selected with AGA1 TCR] | 36 | 37327 | 157329 | 120443 | 2
8 | KSCTPEVREYF [HLA-B5703 library peptide selected with AGA1 TCR] | 17 | 15114 | 94896 | 49796 | 0
9 | KSLAPEVRDLF [HLA-B5703 library peptide selected with AGA1 TCR] | 8 | 6502 | 34865 | 22054 | 0
10 | ASFSPELRMAW [HLA-B5703 library peptide selected with AGA1 TCR] | 10 | 9925 | 47218 | 31919 | 0
11 | RSFVPEIGMGF [HLA-B5703 library peptide selected with AGA1 TCR] | 18 | 20370 | 22329 | 65722 | 8
12 | NSLKPEIPDYF [HLA-B5703 library peptide selected with AGA1 TCR] | 47 | 48656 | 268475 | 171826 | 11
13 | RSFYPEIREYW [HLA-B5703 library peptide selected with AGA1 TCR] | 19 | 14782 | 119258 | 48648 | 7
14 | NSFRPEVAMKY [HLA-B5703 library peptide selected with AGA1 TCR] | 7 | 6013 | 31331 | 19786 | 6
15 | KSLTPEVRGYW [HLA-B5703 library peptide selected with AGA1 TCR] | 15 | 13273 | 30634 | 38231 | 1
16 | ASFRPELAEFW [HLA-B5703 library peptide selected with AGA1 TCR] | 11 | 14699 | 24829 | 42208 | 1
17 | GTIRPEIREMW [HLA-B5703 library peptide selected with AGA1 TCR] | 37 | 36754 | 226381 | 113394 | 5
18 | SALRPEIRLLW [HLA-B5703 library peptide selected with AGA1 TCR] | 50 | 28840 | 21235 | 70740 | 1
19 | WTYRPEVRGVW [HLA-B5703 library peptide selected with AGA1 TCR] | 21 | 30482 | 128915 | 91015 | 4
